Reference: US12053459B2, “CDK2 inhibitors and methods of using the same” (Cedilla Therapeutics, Inc., priority 2021, dated 2024)

What was measured:
CDK2/Cyclin E1(14-475) = CDK2/Cyclin E1(14-475) (Homo sapiens, UniProt P24941); assay: Caliper LabChip EZ Reader mobility shift assay, inhibition of CDK2/Cyclin E1 activity; format: biochemical; settings: class symbols A-D
Summary of the method: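 CDK2/Cyclin E1(14-475) pre-incubated 30 min with compound and ATP, then reaction started with 5-FAM-QSPKKG-CONH2; final 2.5 nM enzyme, 100 μM ATP, 1.5 μM peptide, HEPES pH 7.5. Stopped with EDTA after 100 min; substrate/product conversion by capillary electrophoresis mobility shift, IC50 from four-parameter fit.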

Kuramochi cells = assay: BrdU cell proliferation assay (colorimetric ELISA), Kuramochi cells; format: cell-based; settings: class symbols A-D
Summary of the method: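 Kuramochi cells (2,000/well, with Kuramochi RB^KO cells as a specificity control) were treated with a 4-point, 3-fold dilution series made from 10 mM compound stocks and left for 4 days at 37 °C. Proliferation was measured by 1 h BrdU labelling, then anti-BrdU peroxidase ELISA read at 450 nm. Signals were background-subtracted and normalized to DMSO wells.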

SMILES	IC50 (CDK2/Cyclin E1(14-475)) [µM]	IC50 (Kuramochi cells) [µM]
CNC(=O)[C@H](CCCC1CCC(C(F)(F)F)CC1)NC(=O)C1CN(C(=O)Cc2c[nH]c3cc(Cl)ccc23)CC2CN(C(=O)c3ccc(OC(C)C)c(OC)c3)CC21 (stereo partly shown) [I-94]	> 10	> 10
CNC(=O)[C@H](CCCc1ccccc1)NC(=O)C1CN(C(=O)c2cnc(OC)cn2)CC2CN(C(=O)c3ccc(OC(C)C)c(OC)c3)CC21 (stereo partly shown) [I-163]	> 10	> 10
CNC(=O)[C@H](CCCc1ccccc1)NC(=O)C1CN(C(=O)Cc2c[nH]c3cc(Cl)ccc23)CC2CN(C(=O)c3ccc(OC(C)C)c4occc34)CC21 (stereo partly shown) [I-85]	≤ 0.5	> 10
CNC(=O)[C@H](CCCc1ccccc1)NC(=O)C1CN(C(=O)c2cc(Cl)[nH]n2)CC2CN(C(=O)c3ccc(OC(C)C)c(OC)c3)CC21 (stereo partly shown) [I-197]	> 10	> 10
CNC(=O)[C@H](CCCc1ccccc1)NC(=O)C1CN(C(=O)Cc2c[nH]c3cc(Cl)ccc23)CC2CN(C(=O)c3ncccn3)CC21 (stereo partly shown) [I-57]	> 10	> 10
CNC(=O)[C@H](CCCc1ccncc1)NC(=O)C1CN(C(=O)Cc2c[nH]c3cc(Cl)ccc23)CC2CN(C(=O)c3ccc(OC(C)C)c(OC)c3)CC21 (stereo partly shown) [I-138]	> 10	> 10
CNC(=O)[C@H](CCCc1ccccc1)NC(=O)C1CN(C(=O)c2ccc3nccnc3c2)CC2CN(C(=O)c3ccc(OC(C)C)c(OC)c3)CC21 (stereo partly shown) [I-165]	> 10	> 10
CNC(=O)[C@H](CCCc1ccccc1)NC(=O)C1CN(C(=O)Cc2c[nH]c3cc(OC)ccc23)CC2CN(C(=O)c3ccc(C(F)(F)F)c(Cl)c3)CC21 (stereo partly shown) [I-248]	> 10	> 10
CNC(=O)[C@H](CCCc1ccccc1)NC(=O)C1CN(C(=O)Cc2c[nH]c3cc(Cl)ccc23)CC2CN(C(=O)c3ccc4oc(=O)[nH]c4c3)CC21 (stereo partly shown) [I-75]	> 10	> 10
CNC(=O)[C@H](CCCc1cccnc1)NC(=O)C1CN(C(=O)Cc2c[nH]c3cc(Cl)ccc23)CC2CN(C(=O)c3ccc(OC(C)C)c(OC)c3)CC21 (stereo partly shown) [I-126]	0.5 to 5	> 10
CNC(=O)[C@H](CCCc1ccccc1)NC(=O)C1CN(C(=O)c2cc3ccccc3cn2)CC2CN(C(=O)c3ccc(OC(C)C)c(OC)c3)CC21 (stereo partly shown) [I-160]	> 10	> 10
CNC(=O)[C@H](CCCc1ccccc1)NC(=O)C1CN(C(=O)Cn2ccc3ccccc32)CC2CN(C(=O)c3ccc(OC(C)C)c(OC)c3)CC21 (stereo partly shown) [I-161]	> 10	> 10
CCc1ccc(C(=O)N2CC3CN(C(=O)c4ccc(OC(C)C)c(OC)c4)CC3C(C(=O)N[C@@H](CCCc3ccccc3)C(=O)NC)C2)nc1 (stereo partly shown) [I-214]	> 10	> 10
CNC(=O)[C@H](CCCc1ccccc1)NC(=O)C1CN(C(=O)Cc2c[nH]c3cc(Cl)ccc23)CC2CN(C(=O)c3cnc(OC)cn3)CC21 (stereo partly shown) [I-16]	> 10	> 10
CNC(=O)[C@@H](CCCC1CCCC1)NC(=O)C1CN(C(=O)Cc2c[nH]c3cc(Cl)ccc23)CC2CN(C(=O)c3ccc(OC(C)C)c(OC)c3)CC21 (stereo partly shown) [I-132]	0.5 to 5	> 10
CNC(=O)[C@H](CCCc1ccccc1)NC(=O)C1CN(C(=O)Cc2c[nH]c3cc(Cl)ccc23)CC2CN(C(=O)c3c[nH]c(-c4ccccc4)n3)CC21 (stereo partly shown) [I-74]	> 10	> 10
COc1cc(C(=O)N2CC3CN(C(=O)Cc4c[nH]c5cc(Cl)ccc45)CC(C(=O)NCC(=O)N(C)CCCc4ccccc4)C3C2)ccc1OC(C)C (single isomer, unassigned) [I-101]	> 10	> 10
CNC(=O)[C@H](CCCc1ccccc1)NC(=O)C1CN(C(=O)Cc2nnn[nH]2)CC2CN(C(=O)c3ccc(OC(C)C)c(OC)c3)CC21 (stereo partly shown) [I-186]	> 10	> 10
CNC(=O)[C@H](CCCc1ccccc1)NC(=O)C1CN(C(=O)Cc2c[nH]c3cc(Cl)ccc23)CC2CN(C(=O)c3cnc(-c4ccccc4)s3)CC21 (stereo partly shown) [I-70]	> 10	> 10
CNC(=O)[C@H](CCCc1ccccc1)NC(=O)C1CN(C(=O)Cc2c[nH]c3cc(Cl)ccc23)CC2CN(C(=O)c3ccc(OC)nn3)CC21 (stereo partly shown) [I-21]	> 10	> 10
CNC(=O)[C@H](CCCc1ccccc1)NC(=O)C1CN(C(=O)C(C)c2c[nH]c3cc(Cl)ccc23)CC2CN(C(=O)c3ccc(OC(C)C)c(OC)c3)CC21 (stereo partly shown) [I-226]	0.5 to 5	5 to 10
CNC(=O)[C@H](CCCc1ccccc1)NC(=O)C1CN(C(=O)c2ccc3cccn3c2)CC2CN(C(=O)c3ccc(OC(C)C)c(OC)c3)CC21 (stereo partly shown) [I-199]	> 10	> 10
CNC(=O)[C@H](CCCc1ccccc1)NC(=O)C1CN(C(=O)Cc2c[nH]c3ccc(C)cc23)CC2CN(C(=O)c3ccc(OC(C)C)c(OC)c3)CC21 (stereo partly shown) [I-219]	0.5 to 5	> 10
